In patent US10106538B2, “Inhibitors of protein kinases” (PRINCETON DRUG DISCOVERY INC, priority 2015, dated 2018):

Experiments:
Experiment in all cases: Off-chip Mobility Shift Assay (MSA) kinase inhibition
Format in all cases: biochemical
JAK1 = molecular target: T1, JAK1 (Homo sapiens, UniProt P23458); settings: for inhibition at 0.1 µM: inhibitor concentration 0.1 μM
T1 construct: purchased Carna Biosciences
Method: (§1) Off-chip Mobility Shift Assay (MSA) by Cama Biosciences, Inc (Natick, Mass.) a used for measuring the kinase activity and inhibition. • 1) The 5 μL of x4 compound solution, 5 μL of x4 Substrate/ATP/Metal solution, and 10 μL of x2 kinase solution were prepared with assay buffer (20 mM HEPES, 0.01% Triton X100, 2 mM DTT, pH 7.5) and mixed and incubated in a well of polypropylene 384 well microplate for 1 or 5 hour(s)* at room temperature.

JNK3 = molecular target: T2, JNK3 (Homo sapiens, UniProt P53779); settings: inhibitor concentration 0.1 μM
T2 construct: purchased Carna Biosciences, Inc
Method: as §1

FGR = molecular target: T3, FGR (Homo sapiens, UniProt P09769); settings: for inhibition at 0.1 µM: inhibitor concentration 0.1 μM
T3 construct: purchased Carna Biosciences
Method: as §1

PIM1 = molecular target: T4, PIM1 (Homo sapiens, UniProt P11309); settings: inhibitor concentration 0.1 μM
T4 construct: purchased Carna Biosciences
Method: as §1

AKT2 = molecular target: T5, AKT2 (Homo sapiens, UniProt P31751); settings: inhibitor concentration 0.1 μM
T5 construct: purchased Carna Biosciences
Method: as §1

AKT3 = molecular target: T6, AKT3 (Homo sapiens, UniProt Q9Y243); settings: inhibitor concentration 0.1 μM
T6 construct: purchased Carna Biosciences
Method: as §1

SRM = molecular target: T7, SRM (Homo sapiens, UniProt Q9H3Y6); settings: for inhibition at 0.1 µM: inhibitor concentration 0.1 μM
T7 construct: purchased Carna Biosciences
Method: as §1

AKT1 = molecular target: T8, AKT1 (Homo sapiens, UniProt P31749); settings: inhibitor concentration 0.1 μM
T8 construct: purchased Carna Biosciences
Method: as §1

JNK1 = molecular target: T9, JNK1 (Homo sapiens, UniProt P45983); settings: inhibitor concentration 0.1 μM
T9 construct: purchased Carna Biosciences
Method: as §1

JNK2 = molecular target: T10, JNK2 (Homo sapiens, UniProt P45984); settings: inhibitor concentration 0.1 μM
T10 construct: purchased Carna Biosciences
Method: as §1

MLK1 = molecular target: T11, MLK1 (Homo sapiens, UniProt P80192); settings: inhibitor concentration 0.1 μM
T11 construct: purchased Carna Biosciences
Method: as §1

KDR = molecular target: T12, KDR (Homo sapiens, UniProt P35968); settings: for inhibition at 0.1 µM: inhibitor concentration 0.1 μM
T12 construct: purchased Carna Biosciences
Method: as §1

JAK2 = molecular target: T13, JAK2 (Homo sapiens, UniProt O60674); settings: for inhibition at 0.1 µM: inhibitor concentration 0.1 μM
T13 construct: purchased Carna Biosciences
Method: as §1

Erk5 = molecular target: T14, Erk5 (Homo sapiens, UniProt Q13164); settings: for inhibition at 0.1 µM: inhibitor concentration 0.1 μM
T14 construct: purchased Carna Biosciences
Method: as §1

SRC = molecular target: T15, SRC (Homo sapiens, UniProt P12931); settings: for inhibition at 0.1 µM: inhibitor concentration 0.1 μM
T15 construct: purchased Carna Biosciences
Method: as §1

KIT(V560G) = molecular target: T16, KIT(V560G) (Homo sapiens, UniProt P10721, V560G); settings: for inhibition at 0.1 µM: inhibitor concentration 0.1 μM
T16 construct: purchased Carna Biosciences
Method: as §1

KIT = molecular target: T17, KIT (Homo sapiens, UniProt P10721); settings: for inhibition at 0.1 µM: inhibitor concentration 0.1 μM
T17 construct: purchased Carna Biosciences
Method: as §1

AurB = molecular target: T18, AurB (Homo sapiens, UniProt Q96GD4); settings: inhibitor concentration 0.1 μM
T18 construct: purchased Carna Biosciences, Inc
Method: as §1

Erk2 = molecular target: T19, Erk2 (Homo sapiens, UniProt P28482); settings: for inhibition at 0.1 µM: inhibitor concentration 0.1 μM
T19 construct: purchased Carna Biosciences
Method: as §1

Erk1 = molecular target: T20, Erk1 (Homo sapiens, UniProt P27361); settings: for inhibition at 0.1 µM: inhibitor concentration 0.1 μM
T20 construct: purchased Carna Biosciences
Method: as §1

FGFR2 = molecular target: T21, FGFR2 (Homo sapiens, UniProt P21802); settings: for inhibition at 0.1 µM: inhibitor concentration 0.1 μM
T21 construct: purchased Carna Biosciences
Method: as §1

EGFR = molecular target: T22, EGFR (Homo sapiens, UniProt P00533); settings: for inhibition at 0.1 µM: inhibitor concentration 0.1 μM
T22 construct: purchased Carna Biosciences
Method: as §1

ABL = molecular target: T23, ABL (Homo sapiens, UniProt P00519); settings: for inhibition at 0.1 µM: inhibitor concentration 0.1 μM
T23 construct: purchased Carna Biosciences
Method: as §1

PDGFRα = molecular target: T24, PDGFRα (Homo sapiens, UniProt P16234); settings: for inhibition at 0.1 µM: inhibitor concentration 0.1 μM
T24 construct: purchased Carna Biosciences
Method: as §1

MET = molecular target: T25, MET (Homo sapiens, UniProt P08581); settings: for inhibition at 0.1 µM: inhibitor concentration 0.1 μM
T25 construct: purchased Carna Biosciences
Method: as §1

BTK = molecular target: T26, BTK (Homo sapiens, UniProt Q06187); settings: for inhibition at 0.1 µM: inhibitor concentration 0.1 μM
T26 construct: purchased Carna Biosciences
Method: as §1

PIM3 = molecular target: T27, PIM3 (Homo sapiens, UniProt Q86V86); settings: inhibitor concentration 0.1 μM
T27 construct: purchased Carna Biosciences
Method: as §1

FGFR3 = molecular target: T28, FGFR3 (Homo sapiens, UniProt P22607); settings: for inhibition at 0.1 µM: inhibitor concentration 0.1 μM
T28 construct: purchased Carna Biosciences
Method: as §1

LYNb = molecular target: T29, LYNb (Homo sapiens, UniProt P07948); settings: for inhibition at 0.1 µM: inhibitor concentration 0.1 μM
T29 construct: purchased Carna Biosciences
Method: as §1

PIM2 = molecular target: T30, PIM2 (Homo sapiens, UniProt Q9P1W9); settings: inhibitor concentration 0.1 μM
T30 construct: purchased Carna Biosciences
Method: as §1

[1] = inhibitor concentration 0.01 μM

T24 sequence (P16234 24-1089): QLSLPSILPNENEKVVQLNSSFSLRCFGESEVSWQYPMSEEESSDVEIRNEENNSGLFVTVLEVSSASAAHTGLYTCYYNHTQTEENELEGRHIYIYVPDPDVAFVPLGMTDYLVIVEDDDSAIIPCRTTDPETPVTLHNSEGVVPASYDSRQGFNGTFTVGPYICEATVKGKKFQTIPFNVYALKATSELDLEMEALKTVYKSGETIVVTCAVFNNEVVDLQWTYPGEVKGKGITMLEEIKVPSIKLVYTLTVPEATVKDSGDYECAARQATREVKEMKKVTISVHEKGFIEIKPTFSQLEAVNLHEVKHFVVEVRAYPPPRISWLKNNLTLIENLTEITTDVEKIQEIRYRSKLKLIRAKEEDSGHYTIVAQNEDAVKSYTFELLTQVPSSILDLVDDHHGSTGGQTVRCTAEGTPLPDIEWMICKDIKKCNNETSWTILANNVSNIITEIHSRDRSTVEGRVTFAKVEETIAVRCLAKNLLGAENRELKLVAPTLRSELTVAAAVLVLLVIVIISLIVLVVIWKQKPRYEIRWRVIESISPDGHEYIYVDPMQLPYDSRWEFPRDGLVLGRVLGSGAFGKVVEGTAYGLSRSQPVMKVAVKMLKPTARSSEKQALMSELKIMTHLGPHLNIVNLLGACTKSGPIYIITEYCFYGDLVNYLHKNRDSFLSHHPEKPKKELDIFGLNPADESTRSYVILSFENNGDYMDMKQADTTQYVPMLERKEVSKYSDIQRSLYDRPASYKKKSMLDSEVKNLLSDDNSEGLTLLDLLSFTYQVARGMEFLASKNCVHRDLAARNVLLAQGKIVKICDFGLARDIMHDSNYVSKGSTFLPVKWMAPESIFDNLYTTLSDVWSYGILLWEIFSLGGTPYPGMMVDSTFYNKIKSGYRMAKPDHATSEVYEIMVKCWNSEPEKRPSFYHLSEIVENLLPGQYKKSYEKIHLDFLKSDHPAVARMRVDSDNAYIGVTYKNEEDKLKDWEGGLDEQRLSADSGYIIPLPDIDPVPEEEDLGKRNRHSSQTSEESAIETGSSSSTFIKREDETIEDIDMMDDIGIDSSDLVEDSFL
T26 sequence (Q06187 whole entry): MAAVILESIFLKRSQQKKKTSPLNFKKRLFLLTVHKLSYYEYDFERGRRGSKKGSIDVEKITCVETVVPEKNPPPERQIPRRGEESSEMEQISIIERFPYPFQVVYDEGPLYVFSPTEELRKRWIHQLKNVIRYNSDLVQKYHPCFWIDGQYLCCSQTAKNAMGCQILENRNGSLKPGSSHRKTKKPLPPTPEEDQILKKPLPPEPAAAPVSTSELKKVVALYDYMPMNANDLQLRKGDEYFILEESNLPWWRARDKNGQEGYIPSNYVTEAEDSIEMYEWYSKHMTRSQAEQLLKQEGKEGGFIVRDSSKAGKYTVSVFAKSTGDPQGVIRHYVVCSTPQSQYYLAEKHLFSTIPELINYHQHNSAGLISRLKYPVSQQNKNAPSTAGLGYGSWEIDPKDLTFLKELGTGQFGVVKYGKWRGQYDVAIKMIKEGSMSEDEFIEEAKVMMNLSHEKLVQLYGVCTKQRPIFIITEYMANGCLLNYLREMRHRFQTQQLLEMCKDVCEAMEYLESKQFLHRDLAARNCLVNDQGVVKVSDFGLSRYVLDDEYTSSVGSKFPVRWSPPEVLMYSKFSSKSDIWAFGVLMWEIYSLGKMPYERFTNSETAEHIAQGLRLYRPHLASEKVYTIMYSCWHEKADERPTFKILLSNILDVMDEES
T15 sequence (P12931 whole entry): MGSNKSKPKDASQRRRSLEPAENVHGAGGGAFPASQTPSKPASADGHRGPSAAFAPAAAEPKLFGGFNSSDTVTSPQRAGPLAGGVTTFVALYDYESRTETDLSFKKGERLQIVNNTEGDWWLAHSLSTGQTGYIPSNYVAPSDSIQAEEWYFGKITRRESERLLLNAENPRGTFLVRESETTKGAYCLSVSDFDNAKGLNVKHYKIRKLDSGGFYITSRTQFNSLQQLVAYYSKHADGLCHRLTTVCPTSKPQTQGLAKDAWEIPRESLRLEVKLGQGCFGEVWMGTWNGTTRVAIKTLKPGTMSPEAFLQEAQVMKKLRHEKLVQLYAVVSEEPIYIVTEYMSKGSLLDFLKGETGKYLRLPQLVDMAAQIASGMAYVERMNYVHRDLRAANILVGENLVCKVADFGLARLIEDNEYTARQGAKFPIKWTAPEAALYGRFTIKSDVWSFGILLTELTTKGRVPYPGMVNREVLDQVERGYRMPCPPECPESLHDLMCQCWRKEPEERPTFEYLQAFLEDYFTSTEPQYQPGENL
T16 sequence (P10721 26-976 V560G): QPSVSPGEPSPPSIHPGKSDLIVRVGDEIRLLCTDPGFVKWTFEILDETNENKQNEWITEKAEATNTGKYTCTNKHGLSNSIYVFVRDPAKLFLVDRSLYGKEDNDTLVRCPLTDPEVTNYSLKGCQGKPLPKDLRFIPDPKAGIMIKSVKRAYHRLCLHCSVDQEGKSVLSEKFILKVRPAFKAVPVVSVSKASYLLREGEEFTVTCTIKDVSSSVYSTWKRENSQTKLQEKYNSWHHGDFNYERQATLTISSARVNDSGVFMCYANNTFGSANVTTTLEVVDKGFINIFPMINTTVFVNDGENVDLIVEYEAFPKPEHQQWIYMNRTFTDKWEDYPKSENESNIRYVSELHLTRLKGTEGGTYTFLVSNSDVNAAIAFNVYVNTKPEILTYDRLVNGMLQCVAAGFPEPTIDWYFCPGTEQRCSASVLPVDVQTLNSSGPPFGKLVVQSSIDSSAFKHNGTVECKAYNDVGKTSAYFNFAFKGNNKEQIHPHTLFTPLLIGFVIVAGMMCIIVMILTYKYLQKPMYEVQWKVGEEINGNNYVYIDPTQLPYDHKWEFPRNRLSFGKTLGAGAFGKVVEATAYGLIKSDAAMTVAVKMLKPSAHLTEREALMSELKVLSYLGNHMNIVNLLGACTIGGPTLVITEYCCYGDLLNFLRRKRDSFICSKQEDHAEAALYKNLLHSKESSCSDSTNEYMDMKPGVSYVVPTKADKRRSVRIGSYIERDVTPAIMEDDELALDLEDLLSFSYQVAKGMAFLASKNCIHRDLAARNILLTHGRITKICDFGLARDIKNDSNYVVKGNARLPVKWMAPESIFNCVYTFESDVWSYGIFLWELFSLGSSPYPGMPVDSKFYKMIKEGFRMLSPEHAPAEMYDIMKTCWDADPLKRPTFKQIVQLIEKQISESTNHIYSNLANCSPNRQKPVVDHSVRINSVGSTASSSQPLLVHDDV
T12 sequence (P35968 20-1356): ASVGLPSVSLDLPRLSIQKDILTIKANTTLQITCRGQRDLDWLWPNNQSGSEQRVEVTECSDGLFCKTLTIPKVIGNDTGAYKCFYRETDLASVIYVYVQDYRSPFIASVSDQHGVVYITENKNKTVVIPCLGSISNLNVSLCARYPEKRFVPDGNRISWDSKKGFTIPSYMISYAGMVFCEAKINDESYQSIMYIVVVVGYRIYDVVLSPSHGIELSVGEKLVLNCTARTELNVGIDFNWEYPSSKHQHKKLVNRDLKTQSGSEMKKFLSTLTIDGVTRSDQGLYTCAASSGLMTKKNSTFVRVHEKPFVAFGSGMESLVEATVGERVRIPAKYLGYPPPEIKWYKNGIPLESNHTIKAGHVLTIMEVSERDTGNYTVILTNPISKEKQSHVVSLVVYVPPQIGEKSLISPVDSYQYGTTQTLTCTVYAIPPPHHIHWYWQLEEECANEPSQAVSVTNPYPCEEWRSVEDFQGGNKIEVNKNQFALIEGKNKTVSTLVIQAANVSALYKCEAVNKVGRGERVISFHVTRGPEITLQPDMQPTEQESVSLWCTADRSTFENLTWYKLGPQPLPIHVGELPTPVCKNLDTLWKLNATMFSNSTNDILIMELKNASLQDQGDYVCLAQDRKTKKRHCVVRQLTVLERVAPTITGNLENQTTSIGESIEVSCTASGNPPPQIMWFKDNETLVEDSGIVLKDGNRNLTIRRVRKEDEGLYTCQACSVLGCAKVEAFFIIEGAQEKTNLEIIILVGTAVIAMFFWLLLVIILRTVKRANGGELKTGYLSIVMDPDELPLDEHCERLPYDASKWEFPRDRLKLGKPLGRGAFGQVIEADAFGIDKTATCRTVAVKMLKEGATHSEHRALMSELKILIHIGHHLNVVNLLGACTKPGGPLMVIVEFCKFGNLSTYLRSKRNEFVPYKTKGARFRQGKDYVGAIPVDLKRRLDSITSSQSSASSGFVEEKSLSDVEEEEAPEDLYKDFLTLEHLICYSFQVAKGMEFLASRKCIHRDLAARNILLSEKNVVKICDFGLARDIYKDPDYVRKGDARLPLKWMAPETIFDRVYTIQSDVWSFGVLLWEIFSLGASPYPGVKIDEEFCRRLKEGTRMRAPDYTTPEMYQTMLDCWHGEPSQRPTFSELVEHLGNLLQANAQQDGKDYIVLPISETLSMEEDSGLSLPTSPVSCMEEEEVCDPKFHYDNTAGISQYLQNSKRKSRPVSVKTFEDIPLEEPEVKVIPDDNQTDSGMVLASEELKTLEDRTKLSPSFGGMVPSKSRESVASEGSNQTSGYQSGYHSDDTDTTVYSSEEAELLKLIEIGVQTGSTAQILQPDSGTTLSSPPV
T7 sequence (Q9H3Y6 whole entry): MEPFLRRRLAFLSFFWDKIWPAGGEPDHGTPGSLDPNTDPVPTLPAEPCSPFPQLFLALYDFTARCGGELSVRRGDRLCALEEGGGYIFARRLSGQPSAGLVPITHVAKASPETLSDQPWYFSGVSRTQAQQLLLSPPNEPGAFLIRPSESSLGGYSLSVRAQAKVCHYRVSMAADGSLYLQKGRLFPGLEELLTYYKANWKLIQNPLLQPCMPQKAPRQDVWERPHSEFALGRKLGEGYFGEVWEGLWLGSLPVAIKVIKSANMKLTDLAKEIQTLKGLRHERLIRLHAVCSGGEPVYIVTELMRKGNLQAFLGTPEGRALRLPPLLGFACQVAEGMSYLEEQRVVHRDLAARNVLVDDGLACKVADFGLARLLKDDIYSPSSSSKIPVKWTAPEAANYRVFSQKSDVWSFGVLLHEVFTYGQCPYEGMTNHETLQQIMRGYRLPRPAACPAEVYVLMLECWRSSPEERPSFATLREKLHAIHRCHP
T17 sequence (P10721 26-976): as the sequence (P10721 26-976 V560G) above, with G535V counted along it

Q: With `O=C(c1c(F)ccc(NS(=O)(=O)CC(O)CO)c1F)c1c[nH]c2ncc(-c3ccc(Cl)cc3)cc12` (stereo not drawn) [200-73, N-[3-[5-(4-chlorophenyl)-lH-pyrrolo [2,3-b]pyridine-3-carbonyl]-2,4-difluorophenyl]-2,3-dihydroxypropane-l-sulfonamide] as the molecule, how does the inhibition at 0.1 µM (JAK1) read?
A: > 30%

Q: What about the inhibition at 0.1 µM (JNK3) of the same molecule?
A: < 30%

Q: And the inhibition at 0.1 µM (FGR)?
A: < 30%

Q: What about the inhibition at 0.1 µM (PIM1) of the same molecule?
A: < 30%

Q: What about the inhibition at 0.1 µM (AKT2) of the same molecule?
A: < 30%

Q: What about the inhibition at 0.1 µM (AKT3) of the same molecule?
A: < 30%

Q: What about the inhibition at 0.1 µM (SRM) of the same molecule?
A: > 30%

Q: What about the inhibition at 0.1 µM (AKT1) of the same molecule?
A: < 30%

Q: And the inhibition at 0.1 µM (JNK1)?
A: < 30%

Q: What about the inhibition at 0.1 µM (JNK2) of the same molecule?
A: < 30%

Q: What about the inhibition at 0.1 µM (MLK1) of the same molecule?
A: < 30%

Q: And the inhibition at 0.1 µM (KDR)?
A: < 30%

Q: And the inhibition at 0.1 µM (JAK2)?
A: < 30%

Q: And the inhibition at 0.1 µM (Erk5)?
A: < 30%

Q: And the inhibition at 0.1 µM (SRC)?
A: < 30%

Q: What about the inhibition at 0.1 µM (KIT(V560G)) of the same molecule?
A: < 30%

Q: What about the inhibition at 0.1 µM (KIT) of the same molecule?
A: < 30%

Q: What about the inhibition at 0.1 µM (AurB) of the same molecule?
A: < 30%

Q: And the inhibition at 0.1 µM (Erk2)?
A: < 30%

Q: What about the inhibition at 0.1 µM (Erk1) of the same molecule?
A: < 30%

Q: What about the inhibition at 0.1 µM (FGFR2) of the same molecule?
A: < 30%

Q: And the inhibition at 0.1 µM (EGFR)?
A: < 30%

Q: And the inhibition at 0.1 µM (ABL)?
A: < 30%

Q: What about the inhibition at 0.1 µM (PDGFRα) of the same molecule?
A: < 30%

Q: What about the inhibition at 0.1 µM (MET) of the same molecule?
A: < 30%

Q: What about the inhibition at 0.1 µM (BTK) of the same molecule?
A: < 30%

Q: What about the inhibition at 0.1 µM (PIM3) of the same molecule?
A: < 30%

Q: And the inhibition at 0.1 µM (FGFR3)?
A: < 30%

Q: What about the inhibition at 0.1 µM (LYNb) of the same molecule?
A: < 30%

Q: And the inhibition at 0.1 µM (PIM2)?
A: < 30%

Q: What does the source list for `CC(O)CS(=O)(=O)Nc1ccc(F)c(C(=O)c2c[nH]c3ncc(-c4ccc(Cl)cc4)cc23)c1F` (centres unmarked) [200-115]?
A: inhibition at 0.1 µM (JAK1): < 30%; inhibition at 0.1 µM (JNK3): < 30%; inhibition at 0.1 µM (FGR): > 30%; inhibition at 0.1 µM (PIM1): < 30%; inhibition at 0.1 µM (AKT2): < 30%; inhibition at 0.1 µM (AKT3): < 30%; inhibition at 0.1 µM (SRM): > 30%; inhibition at 0.1 µM (AKT1): < 30%; inhibition at 0.1 µM (JNK1): < 30%; inhibition at 0.1 µM (JNK2): < 30%; inhibition at 0.1 µM (MLK1): < 30%; inhibition at 0.1 µM (KDR): < 30%; inhibition at 0.1 µM (JAK2): < 30%; inhibition at 0.1 µM (Erk5): < 30%; inhibition at 0.1 µM (SRC): < 30%; inhibition at 0.1 µM (KIT(V560G)): < 30%; inhibition at 0.1 µM (KIT): < 30%; inhibition at 0.1 µM (AurB): < 30%; inhibition at 0.1 µM (Erk2): < 30%; inhibition at 0.1 µM (Erk1): < 30%; inhibition at 0.1 µM (FGFR2): < 30%; inhibition at 0.1 µM (EGFR): < 30%; inhibition at 0.1 µM (ABL): < 30%; inhibition at 0.1 µM (PDGFRα): > 30%; inhibition at 0.1 µM (MET): < 30%; inhibition at 0.1 µM (BTK): < 30%; inhibition at 0.1 µM (PIM3): < 30%; inhibition at 0.1 µM (FGFR3): < 30%; inhibition at 0.1 µM (LYNb): < 30%; inhibition at 0.1 µM (PIM2): < 30%

Q: Which results are given for `O=C(c1c(F)ccc(NS(=O)(=O)CCCO)c1F)c1c[nH]c2ncc(-c3ccc(Cl)cc3)cc12` [200-17, N-[3-[5-(4-chlorophenyl)-1H-pyrrolo[2,3-b]pyridine-3-carbonyl]-2,4-difluorophenyl]-3-hydroxypropane-1-sulfonamide]?
A: inhibition at 0.01 µM (JAK1; [1]): > 30%; inhibition at 0.1 µM (JAK1): > 50%; inhibition at 1 µM (JAK1; inhibitor concentration 1 μM): > 50%; inhibition at 0.01 µM (FGR; [1]): > 30%; inhibition at 0.1 µM (FGR): > 50%; inhibition at 1 µM (FGR; inhibitor concentration 1 μM): > 50%; inhibition at 0.01 µM (SRM; [1]): > 30%; inhibition at 0.1 µM (SRM): > 50%; inhibition at 1 µM (SRM; inhibitor concentration 1 μM): > 50%; inhibition at 0.01 µM (KDR; [1]): < 30%; inhibition at 0.1 µM (KDR): > 50%; inhibition at 1 µM (KDR; inhibitor concentration 1 μM): > 50%; inhibition at 0.01 µM (JAK2; [1]): < 30%; inhibition at 0.1 µM (JAK2): > 50%; inhibition at 1 µM (JAK2; inhibitor concentration 1 μM): > 50%; inhibition at 1 µM (Erk5; inhibitor concentration 1 μM): > 50%; inhibition at 0.01 µM (SRC; [1]): < 30%; inhibition at 0.1 µM (SRC): > 50%; inhibition at 1 µM (SRC; inhibitor concentration 1 μM): > 50%; inhibition at 0.01 µM (KIT(V560G); [1]): < 30%; inhibition at 0.1 µM (KIT(V560G)): > 50%; inhibition at 1 µM (KIT(V560G); inhibitor concentration 1 μM): > 50%; inhibition at 0.01 µM (KIT; [1]): > 30%; inhibition at 0.1 µM (KIT): > 50%; inhibition at 1 µM (KIT; inhibitor concentration 1 μM): > 50%; inhibition at 1 µM (Erk2; inhibitor concentration 1 μM): < 50%; inhibition at 1 µM (Erk1; inhibitor concentration 1 μM): < 50%; inhibition at 1 µM (FGFR2; inhibitor concentration 1 μM): > 50%; inhibition at 1 µM (EGFR; inhibitor concentration 1 μM): > 50%; inhibition at 1 µM (ABL; inhibitor concentration 1 μM): < 50%; inhibition at 0.01 µM (PDGFRα; [1]): < 30%; inhibition at 0.1 µM (PDGFRα): > 50%; inhibition at 1 µM (PDGFRα; inhibitor concentration 1 μM): > 50%; inhibition at 1 µM (MET; inhibitor concentration 1 μM): > 50%; inhibition at 0.01 µM (BTK; [1]): < 30%; inhibition at 0.1 µM (BTK): < 50%; inhibition at 1 µM (BTK; inhibitor concentration 1 μM): < 50%; inhibition at 1 µM (FGFR3; inhibitor concentration 1 μM): > 50%; inhibition at 0.01 µM (LYNb; [1]): < 30%; inhibition at 0.1 µM (LYNb): > 50%; inhibition at 1 µM (LYNb; inhibitor concentration 1 μM): > 50%
